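These data come from cells grown in 96-well plates and exposed to compound for 48 hours at five concentrations. The concentration for 50% growth inhibition is given as GI50.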 The source made the active and inactive calls. Rule as the data show it: active = GI50 up to about 1.1 µM and inactive = higher. Square brackets hold non-standard residues; d marks the D form. Peptide text beside a SMILES is read from it. Phe(4-Cl) = N[CH](Cc1ccc(Cl)cc1)C(=O)O; 2Nal = N[CH](Cc1ccc2ccccc2c1)C(=O)O; 3Pal = N[CH](Cc1cccnc1)C(=O)O
Assays:
Assay in all cases: NCI tumour cell line growth inhibition, 48 h
[1] = test system: SK-MEL-5
[2] = test system: HCC 2998
[3] = test system: SF-295
[4] = test system: OVCAR-5
[5] = test system: MDA-N
[6] = test system: HOP-62
[7] = test system: MDA-MB-435
[8] = test system: 786-0
[9] = test system: U-251
[10] = test system: LOX IMVI
[11] = test system: Hs-578T
[12] = test system: SF-539
[13] = test system: ACHN
[14] = test system: MCF7
[15] = test system: SF-268
[16] = test system: K562
[17] = test system: IGROV-1
[18] = test system: UACC-62
[19] = test system: NCI-H226
[20] = test system: T47D

Measured: GI50

COc1nc(N)c(C#N)c(C#N)c1C#N
inactive: [1] > 10 µM | [2] > 10 µM | [3] > 10 µM | [4] > 10 µM | [5] > 10 µM | [6] > 10 µM | [7] > 10 µM | [8] > 10 µM | [9] > 10 µM | [10] > 10 µM | [11] > 10 µM | [12] > 10 µM | [13] > 10 µM | [14] > 10 µM | [15] > 10 µM | [16] > 10 µM

CC1(C)OCC(C(O)C2OC(C)(C)OC2C=O)O1 (stereo not drawn)
inactive: [1] > 100 µM | [3] > 100 µM | [4] > 100 µM | [5] > 100 µM | [17] > 100 µM | [6] > 100 µM | [7] > 100 µM | [8] > 100 µM | [18] > 100 µM | [9] > 100 µM | [10] > 100 µM | [11] > 100 µM | [13] > 100 µM | [14] > 100 µM | [15] > 100 µM | [16] > 100 µM | [19] > 100 µM

CS(=O)(=O)OCCn1c(=O)n(CCOS(C)(=O)=O)c(=O)n(CCOS(C)(=O)=O)c1=O
inactive: [1] > 100 µM | [2] > 100 µM | [3] > 100 µM | [4] > 100 µM | [5] > 100 µM | [17] > 100 µM | [6] > 100 µM | [7] > 100 µM | [8] > 100 µM | [18] > 100 µM | [9] > 100 µM | [20] > 100 µM | [10] 36.3 µM | [12] > 100 µM | [13] > 100 µM | [14] > 100 µM | [15] > 100 µM | [16] > 100 µM | [19] > 100 µM

Cc1nc(C(N)=S)sc1C(/C=C/c1ccc(Cl)c(Cl)c1)=N/NC(C)(C)C
inactive: [1] > 100 µM | [2] > 100 µM | [3] > 100 µM | [5] > 100 µM | [17] > 100 µM | [7] > 100 µM | [8] > 100 µM | [18] > 100 µM | [9] > 100 µM | [10] > 100 µM | [11] > 100 µM | [12] > 100 µM | [13] > 100 µM | [14] > 100 µM | [15] > 100 µM | [19] 56.5 µM

N#Cc1nc(C2SCCCS2)oc1N
inactive: [1] > 100 µM | [4] > 100 µM | [5] > 100 µM | [17] > 100 µM | [6] > 100 µM | [7] > 100 µM | [8] > 100 µM | [18] > 100 µM | [9] > 100 µM | [10] > 100 µM | [11] 43 µM | [13] > 100 µM | [14] > 100 µM | [15] > 100 µM | [16] > 100 µM

CC(=O)Oc1cc(C(F)(F)F)ccc1C(=O)OC1(C)OC(=O)c2ccc(C(F)(F)F)cc2O1 (stereo not drawn)
inactive: [2] > 100 µM | [3] > 100 µM | [4] > 100 µM | [5] > 100 µM | [17] > 100 µM | [6] > 100 µM | [7] > 100 µM | [8] > 100 µM | [18] > 100 µM | [9] > 100 µM | [20] > 100 µM | [10] > 100 µM | [12] > 100 µM | [13] > 100 µM | [14] > 100 µM | [15] > 100 µM | [16] > 100 µM | [19] > 100 µM

COC(=O)C(CC12CC3CC(CC(C3)C1)C2)NC(=O)C(N)CC(=O)O (stereo not drawn)
inactive: [1] > 100 µM | [2] > 100 µM | [3] > 100 µM | [4] > 100 µM | [5] > 100 µM | [17] > 100 µM | [6] > 100 µM | [7] > 100 µM | [8] > 100 µM | [18] > 100 µM | [9] > 100 µM | [20] > 100 µM | [11] > 100 µM | [13] > 100 µM | [15] > 100 µM | [16] > 100 µM

O=[N+]([O-])c1ccc2c(c1)C(N1CCN(CCO)CC1)Cc1ccc(F)cc1S2 (stereo not drawn)
inactive: [1] 1.8 µM | [2] 2.58 µM | [3] 4.14 µM | [4] 13.4 µM | [5] 11 µM | [17] 3.85 µM | [6] 17.1 µM | [8] 12 µM | [18] 2.49 µM | [9] 10.1 µM | [20] 17.4 µM | [11] 6.75 µM | [12] 6.22 µM | [13] 4.44 µM | [14] 10.1 µM | [15] 13.5 µM | [16] 2.29 µM | [19] 9.1 µM

CC1OC(NCCNCCNC2OC(C)C(O)C(O)C2O)C(O)C(O)C1O (stereo not drawn)
inactive: [1] > 100 µM | [3] > 100 µM | [4] > 100 µM | [5] > 100 µM | [17] > 100 µM | [6] > 100 µM | [8] > 100 µM | [18] > 100 µM | [9] > 100 µM | [20] > 100 µM | [10] > 100 µM | [11] > 100 µM | [12] > 100 µM | [13] > 100 µM | [14] > 100 µM | [15] > 100 µM | [16] > 100 µM | [19] > 100 µM

C=C(C)/C=C/C(O)[C@](C)(O)[C@H]1[C@H](O)C[C@@]2(C)[C@@H]3CCc4c(cc(OC5OC(CO)C(O)C(O)C5O)c(O)c4C)C3(C)C(=O)C[C@]12C (stereo partly drawn)
inactive: [1] > 100 µM | [2] > 100 µM | [3] > 100 µM | [4] > 100 µM | [5] > 100 µM | [17] > 100 µM | [6] > 100 µM | [7] > 100 µM | [8] > 100 µM | [18] 49 µM | [9] > 100 µM | [20] > 100 µM | [10] > 100 µM | [12] 96.4 µM | [13] > 100 µM | [14] > 100 µM | [15] > 100 µM | [16] > 100 µM | [19] > 100 µM

CC(=O)NC(Cc1ccc2ccccc2c1)C(=O)NC(Cc1ccc(Cl)cc1)C(=O)NC(Cc1cccnc1)C(=O)NC(CO)C(=O)NC(Cc1ccc(O)cc1)C(=O)NC(CCCN=C(N)N)C(=O)NC(CC(C)C)C(=O)NC(CCCN=C(N)N)C(=O)N1CCCC1C(=O)NC(C)C(N)=O (stereo not drawn) (Ac-[2Nal][Phe(4-Cl)][3Pal]SYRLRPA-NH2; configuration not given here)
inactive: [1] 94 µM | [2] > 100 µM | [4] > 100 µM | [5] > 100 µM | [17] > 100 µM | [6] > 100 µM | [7] 82.8 µM | [8] 69.7 µM | [18] 77.4 µM | [9] > 100 µM | [11] 50.2 µM | [12] > 100 µM | [13] > 100 µM | [14] > 100 µM | [16] > 100 µM | [19] > 100 µM
